In the NIST ThermoML archive (doi:10.1016/j.tca.2014.08.016):

Test: xn = mol fraction of the nth substance listed
Details: Liquid; for mass density: Buoyancy - hydrostatic balance with magnetic suspension - one sinker; for viscosity: Falling or rolling sphere viscometry

C=CCCCCCC [oct-1-ene] + C=CCCCC
Details	mass density [kg/m3]	viscosity [mPa·s]
298.15 K, 98 kPa, x1 = 0.2	685.08	0.317
298.15 K, 98 kPa, x1 = 0.4823	696.22	0.36
298.15 K, 98 kPa, x1 = 0.6923	705.6	0.411
298.15 K, 24510 kPa, x1 = 0.2	709.99	0.395
298.15 K, 24510 kPa, x1 = 0.4823	720.99	0.444
298.15 K, 24510 kPa, x1 = 0.6923	729.5	0.511
298.15 K, 49030 kPa, x1 = 0.2	727.77	0.473
298.15 K, 49030 kPa, x1 = 0.4823	736.94	0.537
298.15 K, 49030 kPa, x1 = 0.6923	745.31	0.618
298.15 K, 98060 kPa, x1 = 0.2	754.11	0.644
298.15 K, 98060 kPa, x1 = 0.4823	765.67	0.737
298.15 K, 98060 kPa, x1 = 0.6923	771.37	0.859
298.15 K, 196130 kPa, x1 = 0.2	792.06	1.053
298.15 K, 196130 kPa, x1 = 0.4823	801.39	1.225
298.15 K, 196130 kPa, x1 = 0.6923	806.92	1.47
302.9 K, 98 kPa, x1 = 0.6923	703	0.396
303.67 K, 98 kPa, x1 = 0.4823	692.48	0.347
305.25 K, 98 kPa, x1 = 0.2	679.54	0.304
312.9 K, 98 kPa, x1 = 0.6923	696.34	0.36
313.35 K, 98 kPa, x1 = 0.4823	685.54	0.319
313.65 K, 98 kPa, x1 = 0.2	672.69	0.283
322.39 K, 196130 kPa, x1 = 0.6923	796.19	1.133
322.63 K, 98060 kPa, x1 = 0.6923	759.23	0.688
322.7 K, 49030 kPa, x1 = 0.6923	730.47	0.497
322.74 K, 24510 kPa, x1 = 0.6923	712.73	0.41
322.86 K, 98 kPa, x1 = 0.6923	688.08	0.325
322.95 K, 196130 kPa, x1 = 0.2	781.57	0.842
323.14 K, 98060 kPa, x1 = 0.2	743.21	0.525
323.23 K, 24510 kPa, x1 = 0.2	692.21	0.323
323.24 K, 49030 kPa, x1 = 0.2	714.09	0.388
323.28 K, 98 kPa, x1 = 0.2	664.43	0.256
323.53 K, 196130 kPa, x1 = 0.4823	791.05	0.962
323.71 K, 98060 kPa, x1 = 0.4823	753.36	0.589
323.72 K, 49030 kPa, x1 = 0.4823	723.85	0.434
323.73 K, 24510 kPa, x1 = 0.4823	705.99	0.358
323.86 K, 98 kPa, x1 = 0.4823	678.22	0.285
354.41 K, 196130 kPa, x1 = 0.2	767.99	0.675
354.53 K, 196130 kPa, x1 = 0.4823	778.99	0.757
354.58 K, 98060 kPa, x1 = 0.4823	737.84	0.478
354.59 K, 49030 kPa, x1 = 0.4823	705.39	0.354
354.61 K, 24510 kPa, x1 = 0.4823	683.97	0.291
354.84 K, 98060 kPa, x1 = 0.2	727.23	0.428
